The record followed here is ChEMBL document CHEMBL1123679, “5-Quinone derivatives of 2'-deoxyuridine 5'-phosphate: inhibition and inactivation of thymidylate synthase, antitumor cell, and antiviral studies” (J Med Chem, 1987).

Test [1] can be described thus: Apparent second order rate constant determined as the ratio of kinact/Ki.
The target in test [2] is T1, Thymidylate synthase (Lactobacillus casei) (UniProt P00469).
T1 sequence (whole entry): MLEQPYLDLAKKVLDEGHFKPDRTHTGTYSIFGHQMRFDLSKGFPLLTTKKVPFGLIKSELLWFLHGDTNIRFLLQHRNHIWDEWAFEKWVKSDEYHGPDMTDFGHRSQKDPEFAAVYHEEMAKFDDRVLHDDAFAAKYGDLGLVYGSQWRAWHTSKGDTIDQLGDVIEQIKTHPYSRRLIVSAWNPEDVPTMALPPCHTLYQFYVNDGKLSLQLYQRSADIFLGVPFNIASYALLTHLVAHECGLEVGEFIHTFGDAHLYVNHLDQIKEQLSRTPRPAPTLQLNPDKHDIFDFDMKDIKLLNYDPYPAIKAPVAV
Put plainly: Kinetic constant for inactivation of Lactobacillus casei thymidylate synthase from double reciprocal plots. Particulars: Lacticaseibacillus casei.

The target of test [3] is T1, Thymidylate synthase (Lactobacillus casei). As to conditions: Lacticaseibacillus casei; 10 uM.
Test [4] shares this target. Particulars: Lacticaseibacillus casei.
For test [5] the target is unchanged. As to conditions: Lacticaseibacillus casei. This is another data set of the same source.
The target is the same in test [6]. As to conditions: Lacticaseibacillus casei. The source holds these as a separate data set.
The target is the same in test [7]. Particulars: Lacticaseibacillus casei. This is another data set of the same source.
Test [8] shares this target. As to conditions: Lacticaseibacillus casei. This is another data set of the same source.
Test [9] shares this target. As to conditions: Lacticaseibacillus casei. This is another data set of the same source.
For test [10] the target is unchanged. As to conditions: Lacticaseibacillus casei. This is another data set of the same source.
Test [11] has the same target. Particulars: Lacticaseibacillus casei. This is another data set of the same source.
Test [12] shares this target. The experiment in a line: Kinetic constant for the inactivation of Lactobacillus casei thymidylate synthase was determined at 10 uM concentration using 0 uM of substrate. As to conditions: Lacticaseibacillus casei.

For the molecule `O=C1C=CC(=O)C(c2cn([C@H]3C[C@H](O)[C@@H](COP(=O)(O)O)O3)c(=O)[nH]c2=O)=C1`, the Ratio in test [1] is 3.2. The molecule also displayed a K inact in test [2] of 0.065 s⁻¹.

In test [3], `CC1=C(C)C(=O)C(c2cn([C@H]3C[C@H](O)[C@@H](COP(=O)(O)O)O3)c(=O)[nH]c2=O)=C(C)C1=O` gave a K obs / s of 0.0084. The molecule also registered a K inact in test [4] of 0.014 s⁻¹.

In the case of `CC1=C(C)C(=O)C(c2cn([C@H]3C[C@H](O)[C@@H](COP(=O)(O)O)O3)c(=O)[nH]c2=O)=CC1=O`, the k obs in [5] is 0.011 s⁻¹; in test [6], 0.015 s⁻¹; in [7], 0.0092 s⁻¹; in [8], 0.0066 s⁻¹; in test [9], 0.0052 s⁻¹; in test [10] it was 0.0028 s⁻¹. This molecule returned a k obs in [11] of 0.011 s⁻¹. Also, the Ratio in test [1] is 2.5. The molecule also displayed a K inact in [4] of 0.015 s⁻¹.

Regarding `CC1=C(C)C(=O)C(c2cn([C@H]3C[C@H](O)[C@@H](CO)O3)c(=O)[nH]c2=O)=CC1=O`, the k obs in test [12] was determined as 4e-05 s⁻¹.
